{"source": "patent US20100048503A1", "about": "“COMPOSITION FOR TREATMENT OF PANCREATIC CANCER” (Eisai R & D Management Co., Ltd., priority 2007, published 2010)", "key": {"[1]": {"test_system": "Human pancreatic cancer cell line AsPC-1", "assay": "Combination use with gemcitabine hydrochloride in subcutaneous transplanted (xenograft) model in nude mouse", "type": "in vivo", "details": "AsPC-1 xenograft; for Relative tumor volume on Day 29 Average ± standard deviation: nude mouse", "experimental": "Human pancreatic cancer cell line AsPC-1 (purchased from ATCC) was cultured in RPMI1640 (containing 10% FBS) in a 5% carbon dioxide gas incubator at 37° C. to about 80% confluence, and then the cells were collected with trypsin-EDTA. A 5×10^7 cells/mL suspension was prepared with a phosphate buffer, and each 0.1 mL of the resulting cell suspension was subcutaneously transplanted to a nude mouse at the side of its body. Eleven days after the transplantation, 4-(3-chloro-4-(cyclopropylaminocarbonyl)aminophenoxy)-7-methoxy-6-quinolinecarboxamide (3, 10 or 30 mg/kg, once a day for four weeks, oral) and gemcitabine hydrochloride (purchased from Eli Lilly Japan) (200 mg/kg, four times every three days, intravenous) were administered alone or in combination. The major and minor axes of tumors were measured with Digimatic caliper (Mitsutoyo Corporation), and tumor volumes and relative tumor volumes were calculated according to the following formulae: […] Relative Tumor Volume (RTV)=Tumor volume on measurement day/Tumor volume on the first administration day. […] The first day of administration was considered Day 1."}, "[2]": {"test_system": "Human pancreatic cancer cell line AsPC-1", "assay": "Combination use with erlotinib hydrochloride in subcutaneous transplanted (xenograft) model in nude mouse", "type": "in vivo", "details": "oral, AsPC-1 xenograft; for Relative tumor volume on Day 29 Average ± standard deviation: once a day for four weeks, nude mouse", "experimental": "Human pancreatic cancer cell line AsPC-1 (purchased from ATCC) was cultured in RPMI1640 (containing 10% FBS) in a 5% carbon dioxide gas incubator at 37° C. to about 80% confluence, and then the cells were collected with trypsin-EDTA. A 5×10^7 cells/mL suspension was prepared with a phosphate buffer, and each 0.11 mL of the resulting cell suspension was subcutaneously transplanted to a nude mouse at the side of its body. Ten days after the transplantation, 4-(3-chloro-4-(cyclopropylaminocarbonyl)aminophenoxy)-7-methoxy-6-quinolinecarboxamide (10 mg/kg, once a day for four weeks) and erlotinib hydrochloride (50 mg/kg, once a day for four weeks) were orally administered alone or in combination. The major and minor axes of tumors were measured with Digimatic caliper (Mitsutoyo Corporation), and tumor volumes and relative tumor volumes were calculated according to the following formulae: […] Relative Tumor Volume (RTV)=Tumor volume on measurement day/Tumor volume on the first administration day. […] The first day of administration was considered Day 1."}, "[3]": {"details": "Compound A 3, 10 or 30 mg/kg oral in combination with gemcitabine hydrochloride 200 mg/kg intravenous"}, "[4]": {"details": "Compound A 10 mg/kg in combination with erlotinib hydrochloride 50 mg/kg"}}, "note": "Structures can show the parent of a compound that is named as a salt."}
{"smiles": "Nc1ccn([C@@H]2O[C@H](CO)C(O)C2(F)F)c(=O)n1", "note": "(single isomer, unassigned; (+)) [Gemcitabine hydrochloride, (+)-2′-deoxy-2′,2′-difluorocytidene, reference compound]", "values": [{"measurement": "Relative tumor volume on Day 29 Average ± standard deviation", "setting": "[1]; Gemcitabine hydrochloride 200 mg/kg alone, four times every three days, intravenous", "value": "3.41 ± 0.41"}]}
{"smiles": "COc1cc2nccc(Oc3ccc(NC(=O)NC4CC4)c(Cl)c3)c2cc1C(N)=O", "note": "[Compound A, 4-(3-chloro-4-(cyclopropylaminocarbonyl)aminophenoxy)-7-methoxy-6-quinolinecarboxamide]", "values": [{"measurement": "Relative tumor volume on Day 29 Average ± standard deviation", "setting": "[1]; Compound A 3 mg/kg alone, once a day for four weeks, oral", "value": "2.10 ± 0.64"}, {"measurement": "Relative tumor volume on Day 29 Average ± standard deviation", "setting": "[1]; Compound A 10 mg/kg alone, once a day for four weeks, oral", "value": "1.79 ± 0.56"}, {"measurement": "Relative tumor volume on Day 29 Average ± standard deviation", "setting": "[1]; Compound A 30 mg/kg alone, once a day for four weeks, oral", "value": "0.88 ± 0.27"}, {"measurement": "Anti-tumor effect of combination use compared with either agent alone", "setting": "[1]; [3]", "value": "superior anti-tumor effect"}, {"measurement": "Effect when used in combination with gemcitabine hydrochloride", "setting": "[1]; [3]", "value": "additive effect"}, {"measurement": "Relative tumor volume on Day 29 Average ± standard deviation", "setting": "[2]; Compound A 10 mg/kg alone", "value": "1.84 ± 1.31"}, {"measurement": "Anti-tumor effect of combination use compared with either agent alone", "setting": "[2]; [4]", "value": "superior anti-tumor effect"}, {"measurement": "Effect when used in combination with erlotinib hydrochloride", "setting": "[2]; [4]", "value": "additive effect"}]}
{"smiles": "C#Cc1cccc(Nc2ncnc3cc(OCCOC)c(OCCOC)cc23)c1", "note": "[Erlotinib hydrochloride, 4-(3-ethynylphenylamino)-6,7-bis(2-methoxyethoxy)-quinazoline, reference compound]", "values": [{"measurement": "Relative tumor volume on Day 29 Average ± standard deviation", "setting": "[2]; Erlotinib hydrochloride 50 mg/kg alone", "value": "4.54 ± 0.18"}]}
